Results on 1 molecule are retold here after ChEMBL document CHEMBL1158875, “Plakinidine D, a new pyrroloacridine alkaloid from two ascidians of the genus Didemnum” (J Nat Prod, 1997).

The assay concerns HCT-116. Description: Cytotoxicity against human HCT116 cells at 5 ug/mL. The assay is classed as functional, cell-based.

The source made the active and inactive calls. The rule behind the calls is not given here.

Take `Nc1c2c(c3nc4ccccc4c4c3c1N=C4)NCCC2=O`: the outcome was Active.
